Measurements from ChEMBL document CHEMBL5543162, “Discovery of a Novel Orally Bioavailable FLT3-PROTAC Degrader for Efficient Treatment of Acute Myeloid Leukemia and Overcoming Resistance of FLT3 Inhibitors” (J Med Chem, 2024).
The source made the active and inactive calls. No cut-off for these calls is given here.

Assays:
[1] = Toxicity in nude mouse xenografted with human MV4-11 cells assessed as change in body weight at 120 mg/kg, po administered daily for 15 days; type: organism-based; details: in vivo, 360 h, time 15 day
[2] = Stability in monkey liver microsomes assessed as hepatic clearance; type: ADME, Microsome; details: chlorocebus aethiops
[3] = system: MV4-11; experiment: In vivo PROTAC activity at CRBN/FLT3-ITD mutant in human MV4-11 cells xenografted in nu/nu mouse assessed as protein degradation at 1.25 mg/kg, po administered daily for 2 weeks by immunoblot analysis; type: functional, organism-based
[4] = Toxicity in nu/nu mouse xenografted with human MV4-11 cells assessed as change in body weight at 1.25 to 10 mg/kg, po administered daily for 2 weeks; type: organism-based; details: in vivo, 336 h, dose 1.25-10 mg/kg
[5] = system: MV4-11; experiment: Induction of cell cycle arrest at G1 phase in human MV4-11 cells at 50 nM incubated for 24 hrs by PI/RNase staining based flow cytometry relative to control; type: functional
[6] = target: Cytochrome P450 2C9 (Homo sapiens, UniProt P11712); experiment: Inhibition of CYP2C9 (unknown origin); type: ADME
Chain of Cytochrome P450 2C9 (P11712 whole entry): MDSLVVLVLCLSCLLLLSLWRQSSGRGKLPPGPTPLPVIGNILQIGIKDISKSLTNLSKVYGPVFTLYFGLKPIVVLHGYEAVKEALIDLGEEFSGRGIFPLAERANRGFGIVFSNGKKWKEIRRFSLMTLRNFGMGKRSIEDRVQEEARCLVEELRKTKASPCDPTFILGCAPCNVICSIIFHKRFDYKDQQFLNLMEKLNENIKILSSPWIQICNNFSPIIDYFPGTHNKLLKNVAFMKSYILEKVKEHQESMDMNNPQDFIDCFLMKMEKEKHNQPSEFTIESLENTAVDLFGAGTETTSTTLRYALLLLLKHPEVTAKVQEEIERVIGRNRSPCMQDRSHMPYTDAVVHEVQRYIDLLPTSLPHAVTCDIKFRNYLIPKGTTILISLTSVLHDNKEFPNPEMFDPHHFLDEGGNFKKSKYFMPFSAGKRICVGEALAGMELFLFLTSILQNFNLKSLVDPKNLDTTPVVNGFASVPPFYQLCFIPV

[7] = system: BaF3; experiment: Antiproliferative activity against mouse Ba/F3 cells expressing FLT3-ITD D835V mutant incubated for 48 hrs by CCK8 assay; type: functional, cell-based; details: BaF3, 48 h
[8] = target: T1, Cytochrome P450 1A2 (Homo sapiens, UniProt P05177); experiment: Inhibition of CYP1A2 (unknown origin); type: ADME
T1 sequence (P05177 whole entry): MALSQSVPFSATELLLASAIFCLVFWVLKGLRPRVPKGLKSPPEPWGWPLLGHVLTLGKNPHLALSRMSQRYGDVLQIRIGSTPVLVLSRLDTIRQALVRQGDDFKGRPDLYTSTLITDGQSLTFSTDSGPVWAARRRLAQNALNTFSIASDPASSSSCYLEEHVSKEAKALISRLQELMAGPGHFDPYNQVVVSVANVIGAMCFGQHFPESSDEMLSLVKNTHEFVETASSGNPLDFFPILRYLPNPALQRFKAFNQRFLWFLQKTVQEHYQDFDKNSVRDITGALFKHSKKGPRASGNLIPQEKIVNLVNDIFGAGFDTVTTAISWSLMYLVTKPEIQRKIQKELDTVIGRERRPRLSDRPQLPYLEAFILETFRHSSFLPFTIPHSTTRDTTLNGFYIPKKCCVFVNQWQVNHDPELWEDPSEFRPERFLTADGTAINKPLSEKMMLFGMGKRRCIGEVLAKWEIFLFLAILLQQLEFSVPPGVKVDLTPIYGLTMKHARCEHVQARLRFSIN

[9] = system: Protein cereblon/Receptor-type tyrosine-protein kinase FLT3 (Homo sapiens), P36888+Q96SW2 [UNDEFINED MUTATION]; experiment: PROTAC activity at CRBN/FLT3-ITD mutant in human MV4-11 cells assessed as decrease in STAT5 level incubated for 12 hrs by Western blot analysis; type: cell-based; details: dose <= 20.0 nM
Chain of Protein cereblon/Receptor-type tyrosine-protein kinase FLT3 (Homo sapiens), P36888+Q96SW2 [UNDEFINED MUTATION] (P36888 whole entry, looked up, stated change not applied): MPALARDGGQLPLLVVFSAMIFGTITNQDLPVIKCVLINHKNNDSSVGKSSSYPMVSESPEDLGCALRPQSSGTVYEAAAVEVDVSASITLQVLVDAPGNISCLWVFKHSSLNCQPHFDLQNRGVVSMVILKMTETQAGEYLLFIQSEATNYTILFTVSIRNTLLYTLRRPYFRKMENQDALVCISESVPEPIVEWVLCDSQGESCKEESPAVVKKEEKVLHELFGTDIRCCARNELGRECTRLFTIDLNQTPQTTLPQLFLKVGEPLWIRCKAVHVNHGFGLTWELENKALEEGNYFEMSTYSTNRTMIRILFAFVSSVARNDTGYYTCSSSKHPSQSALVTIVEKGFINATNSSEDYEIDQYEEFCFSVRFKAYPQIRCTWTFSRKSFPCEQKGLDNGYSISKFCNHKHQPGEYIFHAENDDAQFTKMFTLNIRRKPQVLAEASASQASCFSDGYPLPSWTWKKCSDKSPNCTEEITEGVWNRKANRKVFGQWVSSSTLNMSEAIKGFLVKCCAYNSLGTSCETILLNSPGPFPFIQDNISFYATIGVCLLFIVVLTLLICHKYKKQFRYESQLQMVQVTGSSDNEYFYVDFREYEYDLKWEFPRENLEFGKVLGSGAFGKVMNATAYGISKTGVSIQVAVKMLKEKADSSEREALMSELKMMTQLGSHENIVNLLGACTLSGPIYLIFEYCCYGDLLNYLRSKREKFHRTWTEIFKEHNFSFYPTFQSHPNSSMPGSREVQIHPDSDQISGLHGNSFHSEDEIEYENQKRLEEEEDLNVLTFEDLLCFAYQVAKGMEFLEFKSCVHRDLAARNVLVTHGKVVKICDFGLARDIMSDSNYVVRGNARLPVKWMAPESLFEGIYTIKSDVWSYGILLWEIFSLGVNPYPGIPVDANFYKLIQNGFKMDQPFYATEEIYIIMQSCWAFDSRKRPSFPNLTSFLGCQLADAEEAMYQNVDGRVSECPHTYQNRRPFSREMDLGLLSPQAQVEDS
Chain of Protein cereblon/Receptor-type tyrosine-protein kinase FLT3 (Homo sapiens), P36888+Q96SW2 [UNDEFINED MUTATION] (Q96SW2 whole entry, looked up, stated change not applied): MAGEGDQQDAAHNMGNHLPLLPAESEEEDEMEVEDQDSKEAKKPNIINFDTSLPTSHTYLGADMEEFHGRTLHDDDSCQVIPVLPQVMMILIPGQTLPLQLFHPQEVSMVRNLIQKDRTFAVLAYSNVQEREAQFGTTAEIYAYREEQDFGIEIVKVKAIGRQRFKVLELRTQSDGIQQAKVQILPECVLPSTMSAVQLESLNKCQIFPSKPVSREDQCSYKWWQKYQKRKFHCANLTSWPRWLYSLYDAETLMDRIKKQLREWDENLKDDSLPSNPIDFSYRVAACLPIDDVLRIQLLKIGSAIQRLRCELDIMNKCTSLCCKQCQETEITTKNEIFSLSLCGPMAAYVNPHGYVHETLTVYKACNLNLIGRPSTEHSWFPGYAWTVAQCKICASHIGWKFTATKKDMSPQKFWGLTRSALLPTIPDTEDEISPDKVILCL

[10] = system: MV4-11; experiment: Induction of cell cycle arrest at G1 phase in human MV4-11 cells at 5 nM incubated for 24 hrs by PI/RNase staining based flow cytometry relative to control; type: functional
[11] = Toxicity in NSG mouse xenografted with human MV4-11 cells expressing luciferase assessed as physiological change at 10 mg/kg, po administered daily for 3 weeks; type: organism-based; details: in vivo, 504 h
[12] = Stability in human liver microsomes assessed as intrinsic clearance; type: ADME, Microsome; details: read-out: CLH
[13] = system: MV4-11; experiment: Antitumor activity against human MV4-11 cells xenografted in nu/nu mouse at 10 mg/kg, po administered daily for 2 weeks relative to control; type: functional; details: MV4-11, 336 h, read-out: TGI
[14] = AUC (0 to t) in Sprague-Dawley rat at 1 mg/kg, iv measured for 24 hrs by LC-MS/MS analysis; type: ADME, organism-based; details: in vivo
[15] = system: Protein cereblon/Receptor-type tyrosine-protein kinase FLT3 (Homo sapiens), P36888+Q96SW2 [UNDEFINED MUTATION]; experiment: PROTAC activity at CRBN/FLT3-ITD mutant in human MOLM-13 cells assessed as decrease in STAT5 level at 20 nM by Western blot analysis; type: cell-based; details: time <= 12.0 hrs, TDE = time-dependent effect
[16] = system: Mus musculus; experiment: Anti-leukemic activity in NSG mouse xenografted with human MV4-11 cells expressing luciferase assessed as decrease in CD45+/CD33+ cells proportion in bone marrow at 1.25 to 10 mg/kg, po administered daily for 3 weeks; type: functional, organism-based; details: dose 1.25-10 mg/kg
[17] = system: MV4-11; experiment: Induction of proapoptosis in human MV4-11 cells xenografted in nu/nu mouse assessed as increase in cleaved caspase-3 level at 1.25 to 10 mg/kg, po administered daily for 2 weeks; type: functional, organism-based; details: dose 1.25-10 mg/kg
[18] = Stability in mouse liver microsomes assessed as intrinsic clearance; type: ADME, Microsome; details: read-out: CLH
[19] = system: Mus musculus; experiment: Anti-leukemic activity in NSG mouse xenografted with human MV4-11 cells expressing luciferase assessed as decrease in CD45+/CD33+ cells proportion in peripheral blood at 1.25 to 10 mg/kg, po administered daily for 3 weeks; type: functional, organism-based; details: dose 1.25-10 mg/kg
[20] = system: BaF3; experiment: Antiproliferative activity against mouse Ba/F3 cells expressing FLT3-ITD Y842H mutant incubated for 48 hrs by CCK8 assay; type: functional, cell-based; details: BaF3, 48 h
[21] = Clearance in Sprague-Dawley rat at 1 mg/kg, iv measured for 24 hrs by LC-MS/MS analysis; type: ADME, organism-based; details: in vivo
[22] = target: Voltage-gated inwardly rectifying potassium channel KCNH2 (Homo sapiens, UniProt Q12809); experiment: Inhibition of hERG; type: toxicity
Chain of Voltage-gated inwardly rectifying potassium channel KCNH2 (Q12809 whole entry): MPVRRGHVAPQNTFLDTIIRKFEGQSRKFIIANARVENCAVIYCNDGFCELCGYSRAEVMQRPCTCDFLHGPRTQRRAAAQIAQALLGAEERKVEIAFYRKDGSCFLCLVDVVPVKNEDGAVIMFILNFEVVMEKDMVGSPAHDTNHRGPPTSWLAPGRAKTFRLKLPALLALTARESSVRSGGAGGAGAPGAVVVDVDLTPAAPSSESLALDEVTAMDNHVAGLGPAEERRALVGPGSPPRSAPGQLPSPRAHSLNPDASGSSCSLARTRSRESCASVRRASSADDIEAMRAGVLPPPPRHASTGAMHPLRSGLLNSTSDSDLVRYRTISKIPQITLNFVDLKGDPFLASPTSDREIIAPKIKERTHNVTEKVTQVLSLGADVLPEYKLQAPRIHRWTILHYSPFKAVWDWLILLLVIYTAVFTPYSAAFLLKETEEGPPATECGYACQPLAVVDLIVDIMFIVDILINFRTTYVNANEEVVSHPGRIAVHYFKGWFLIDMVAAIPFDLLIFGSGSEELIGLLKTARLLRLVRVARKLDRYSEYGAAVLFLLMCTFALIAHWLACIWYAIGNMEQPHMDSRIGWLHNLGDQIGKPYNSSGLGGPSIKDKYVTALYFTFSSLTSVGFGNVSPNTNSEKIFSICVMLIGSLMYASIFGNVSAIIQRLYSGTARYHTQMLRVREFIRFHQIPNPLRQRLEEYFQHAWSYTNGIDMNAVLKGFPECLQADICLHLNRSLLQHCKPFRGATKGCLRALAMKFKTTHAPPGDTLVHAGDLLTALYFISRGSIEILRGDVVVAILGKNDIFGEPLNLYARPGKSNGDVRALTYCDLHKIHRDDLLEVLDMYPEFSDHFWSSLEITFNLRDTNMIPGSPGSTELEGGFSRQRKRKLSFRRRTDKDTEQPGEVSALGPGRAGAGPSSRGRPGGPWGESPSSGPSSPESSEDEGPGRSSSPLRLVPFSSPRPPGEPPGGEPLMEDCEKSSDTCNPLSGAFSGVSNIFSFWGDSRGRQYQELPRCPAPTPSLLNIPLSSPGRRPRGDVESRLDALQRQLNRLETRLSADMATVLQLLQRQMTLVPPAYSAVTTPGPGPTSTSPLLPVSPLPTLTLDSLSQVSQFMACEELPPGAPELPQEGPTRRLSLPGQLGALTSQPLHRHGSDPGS

[23] = system: Protein cereblon/Receptor-type tyrosine-protein kinase FLT3 (Homo sapiens), P36888+Q96SW2 [UNDEFINED MUTATION]; experiment: PROTAC activity at CRBN/FLT3-ITD mutant in human MV4-11 cells assessed as protein degradation at 20 nM by Western blot analysis; type: cell-based; details: time <= 12.0 hrs, TDE = time-dependent effect
[24] = system: Protein cereblon/Receptor-type tyrosine-protein kinase FLT3 (Homo sapiens), P36888+Q96SW2 [UNDEFINED MUTATION]; experiment: PROTAC activity at CRBN/FLT3-ITD mutant in human MOLM-13 cells assessed as decrease in ERK level incubated for 12 hrs by Western blot analysis; type: cell-based; details: dose <= 20.0 nM
[25] = system: Protein cereblon/Receptor-type tyrosine-protein kinase FLT3 (Homo sapiens), P36888+Q96SW2 [UNDEFINED MUTATION]; experiment: PROTAC activity at CRBN/FLT3-ITD mutant in human MOLM-13 cells assessed as protein degradation at 100 nM incubated for 8 hrs in presence of bortezomib by Western blot analysis; type: cell-based
[26] = system: MOLM-13; experiment: Antiproliferative activity against Sunitinib-resistant human MOLM-13 cells incubated for 48 hrs by CCK8 assay; type: functional, cell-based; details: MOLM-13, 48 h
[27] = system: Protein cereblon/Receptor-type tyrosine-protein kinase FLT3 (Homo sapiens), P36888+Q96SW2 [UNDEFINED MUTATION]; experiment: PROTAC activity at CRBN/FLT3-ITD mutant in human MV4-11 cells assessed as decrease in S6K level incubated for 12 hrs by Western blot analysis; type: cell-based; details: dose <= 20.0 nM
[28] = Antiproliferative activity against human HL-60 cells expressing wild-type FLT3 incubated for 48 hrs by CCK8 assay; type: toxicity, cell-based
[29] = system: MOLM-13; experiment: Induction of apoptosis in human MOLM-13 cells incubated for 24 hrs by Annexin V-FITC/PI staining based flow cytometry; type: functional, cell-based; details: dose 25-100 nM
[30] = system: MV4-11; experiment: Induction of cell cycle arrest at G1 phase in human MV4-11 cells at 1 nM incubated for 24 hrs by PI/RNase staining based flow cytometry relative to control; type: functional
[31] = Tmax in Sprague-Dawley rat at 10 mg/kg, po measured for 24 hrs by LC-MS/MS analysis; type: ADME, organism-based; details: in vivo
[32] = Stability in monkey liver microsomes assessed as half life; type: ADME, Microsome; details: chlorocebus aethiops
[33] = system: Protein cereblon/Receptor-type tyrosine-protein kinase FLT3 (Homo sapiens), P36888+Q96SW2 [UNDEFINED MUTATION]; experiment: PROTAC activity at CRBN/FLT3-ITD in human MV4-11 cells assessed as protein degradation by TMT-based global proteomic profiling analysis; type: cell-based

For Cc1c(NC(=O)CN2CCN(CC3CCN(c4ccc5c(c4)C(=O)N(C4CCC(=O)NC4=O)C5=O)CC3)CC2)c[nH]c1/C=C1\C(=O)Nc2ccc(F)cc21 (stereo not drawn), which Activity [1] is on record?
Its Activity is “Non-Toxic”.

What about the CLhep predicted [2] of the same compound?
The CLhep predicted was 23.4 mL/min/kg.

What about the Activity [3] of the same compound?
The Activity was “Active”.

What about the Activity [4] of the same compound?
The Activity was “Non-Toxic”.

What about the Activity [5] of the same compound?
Its Activity is 89.2%.

And the IC50 [6]?
Its IC50 is over 50000 nM.

And the IC50 [7]?
The IC50 was 45.1 nM.

And the IC50 [8]?
The IC50 was over 50000 nM.

And the Activity [9]?
Its Activity is “Dose-Dependent Effect”.

What about the Activity [10] of the same compound?
The Activity was 85.5%.

What about the Activity [11] of the same compound?
The Activity was “Non-Toxic”.

And the CLint scaled [12]?
Its CLint scaled is 23.1 mL/min/kg.

What about the inhibition in vivo at 10 mg/kg [13] of the same compound?
The inhibition in vivo at 10 mg/kg was 100%.

What about the AUC(0-t) at 24 h [14] of the same compound?
Its AUC(0-t) at 24 h is 2770 ng·h/mL.

And the Activity [15]?
The Activity was “Tde”.

And the Activity [16]?
The Activity was “Active”.

And the Activity [17]?
The Activity was “Active”.

And the CLint scaled [18]?
Its CLint scaled is 92.7 mL/min/kg.

And the Activity [19]?
Its Activity is “Active”.

What about the IC50 [20] of the same compound?
Its IC50 is 46.7 nM.

And the clearance [21]?
Its clearance is 3.5 mL/min/kg.

And the IC50 [22]?
The IC50 was over 40000 nM.

And the Activity [23]?
The Activity was “Tde”.

What about the Activity [24] of the same compound?
Its Activity is “Dose-Dependent Effect”.

What about the Activity [25] of the same compound?
The Activity was “inactive”.

What about the IC50 [26] of the same compound?
Its IC50 is 147 nM.

What about the Activity [27] of the same compound?
Its Activity is “Dose-Dependent Effect”.

And the IC50 at 48 h [28]?
Its IC50 at 48 h is over 40000 nM.

What about the Activity [29] of the same compound?
Its Activity is “Dose-Dependent Effect”.

And the Activity [30]?
Its Activity is 82%.

What about the Tmax [31] of the same compound?
The Tmax was 6.2 h.

And the half-life [32]?
The half-life was 0.615 h.

And the Activity [33]?
The Activity was “Active”.
